Source: US8124621B2, “Substituted 1-amino-4-phenyl-dihydroisoquinolines, methods for the production thereof, use thereof as a medicament, and medicaments containing them” (Sanofi-Aventis, priority 2006, dated 2012)
Where a name gives a salt, the structure may show the parent alone.

Key:
NHE3 = molecular target: T1, NHE3 (Homo sapiens, UniProt P48764); experiment: Determination of the NHE-inhibitory effect (recovery of intracellular pH after acidification, BCECF fluorescence); format: cell-based; settings: pH recovery recorded for three minutes with NHE3; BCECF-loaded cells
T1 sequence (P48764 26-834): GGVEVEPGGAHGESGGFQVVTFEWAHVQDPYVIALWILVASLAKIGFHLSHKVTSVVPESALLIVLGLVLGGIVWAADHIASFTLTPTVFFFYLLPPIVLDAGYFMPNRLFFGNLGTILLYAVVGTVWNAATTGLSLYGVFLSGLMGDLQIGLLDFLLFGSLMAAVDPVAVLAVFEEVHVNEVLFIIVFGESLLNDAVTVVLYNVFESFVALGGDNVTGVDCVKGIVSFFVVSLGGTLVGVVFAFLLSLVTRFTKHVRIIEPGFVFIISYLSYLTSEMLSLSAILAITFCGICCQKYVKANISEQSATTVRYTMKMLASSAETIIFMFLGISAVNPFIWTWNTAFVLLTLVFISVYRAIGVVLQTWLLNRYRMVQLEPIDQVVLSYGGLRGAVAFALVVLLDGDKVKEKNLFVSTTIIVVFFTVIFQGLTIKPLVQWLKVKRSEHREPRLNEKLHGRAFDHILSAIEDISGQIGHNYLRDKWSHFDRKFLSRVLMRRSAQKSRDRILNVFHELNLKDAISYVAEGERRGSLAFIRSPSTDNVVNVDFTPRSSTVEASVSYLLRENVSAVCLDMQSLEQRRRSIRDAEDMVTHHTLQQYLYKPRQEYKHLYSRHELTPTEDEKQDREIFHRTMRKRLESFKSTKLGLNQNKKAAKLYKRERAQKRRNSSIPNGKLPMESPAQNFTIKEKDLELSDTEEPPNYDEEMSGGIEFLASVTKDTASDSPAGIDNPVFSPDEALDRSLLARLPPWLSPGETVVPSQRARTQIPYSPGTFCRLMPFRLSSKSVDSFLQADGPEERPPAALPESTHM
Procedure: Description of Assay: Determination of the NHE-Inhibitory Effect
In this assay, the recovery of the intracellular pH (pHj) after an acidification which occurs even under bicarbonate-free conditions with functional NHE was determined. To this end, the pHj was determined using the pH-sensitive fluorescent dye BCECF (Calbiochem, the precursor BCECF-AM was employed). The cells were initially loaded with BCECF. The BCECF fluorescence was determined in a ratio fluorescence spectrometer (Photon Technology International, South Brunswick, N.J., USA) with excitation wavelengths of 505 and 440 nm and an emission wavelength of 535 nm and converted into the pHj using calibration plots. The cells had been incubated in NH4Cl buffer (pH 7.4) for the BCECF loading (NH4Cl buffer: 115 mM NaCl, 20 mM NH4Cl, 5 mM KCl, 1 mM CaCl2, 1 mM MgSO4, 20 mM Hepes, 5 mM glucose, 1 mg/ml BSA; a pH of 7.4 was adjusted with 1 M NaOH). The intracellular acidification was induced by adding 975 μl of an NH4Cl-free buffer (see below) to 25 μl aliquots of the cells incubated in NH4Cl buffer. The subsequent rate of pH recovery was recorded for two minutes with NHE1, five minutes with NHE2 and three minutes with NHE3. To calculate the inhibitory power of the tested substances, the cells were initially investigated in buffers with which there was complete or absolutely no pH recovery. For complete pH recovery (100%), the cells were incubated in Na^+-containing buffer (133.8 mM NaCl, 4.7 mM KCl, 1.25 mM CaCl2, 1.25 mM MgCl2, 0.97 mM Na2HPO4, 0.23 mM NaH2PO4, 5 mM Hepes, 5 mM glucose, a pH of 7.0 was adjusted with 1 M NaOH). To determine the 0% value, the cells were incubated in an Na^+-free buffer (133.8 mM choline chloride, 4.7 mM KCl, 1.25 mM CaCl2, 1.25 mM MgCl2, 0.97 mM K2HPO4, 0.23 mM KH2PO4, 5 mM Hepes, 5 mM glucose, a pH of 7.0 was adjusted with 1 M NaOH). The substances to be tested were made up in the Na^+-containing buffer. The recovery of the intracellular pH at each tested concentration of a substance was expressed as a percentage of the maximum recovery. The IC50 of the respective substance for the individual NHE subtypes was calculated from the percentages of pH recovery using the Sigma Plot program.

Compound | melting point [°C] | IC50 (NHE3) [µM]
NC1=NCC(c2ccc(N)cc2)c2cc(Cl)ccc21 (centres unmarked) (as salt: hydrochloride) [Example 1A, 1-Amino-4-(4-aminophenyl)-6-chloro-3,4-dihydroisoquinoline Hydrochloride] | 278 to 284 | –
NC1=NCC(c2ccc(N)cc2)c2cc(Cl)ccc21 (centres unmarked) [Example 1A, 1-Amino-4-(4-aminophenyl)-6-chloro-3,4-dihydroisoquinoline Hydrochloride] | – | 1.95
NC1=NCC(c2ccc(N)cc2)c2ccccc21 (centres unmarked) [Example 1B, 1-amino-4-(4-aminophenyl)-3,4-dihydroisoquinoline Hydrochloride] | – | 8.24
NC1=NCC(c2ccccc2N)c2cc(Cl)ccc21 (centres unmarked) [Example 2, 1-Amino-4-(2-aminophenyl)-6-chloro-3,4-dihydroisoquinoline Hydrochloride] | – | 1.63
CNC1=NCC(c2ccc(N)cc2)c2cc(Cl)ccc21 (centres unmarked) [Example 3, 4-(4-Aminophenyl)-6-chloro-1-methylamino-3,4-dihydroisoquinoline Hydrochloride] | – | 4.93
